Test results from patent US20210134398A1, “Combinatorial Chemistry Computational System and Enhanced Selection Method” (Southern Methodist University, priority 2019, published 2021).
Entries after “also recorded” stand apart in the source; their conditions may differ. Where two headings read alike, the source gives them in different places. Blank lines part the entries; values can stand above or below the compound they belong to.

Legend:
[1] = target: T1, Cysteineless Mouse MDR3 P-glycoprotein (Mus musculus, UniProt P21447, C1070A/C1121A/C1223A/C133A/C427A/C638A/C669A/C713A/C952A); test: ATPase activity assay (basal and verapamil-stimulated), purified P-gp in mixed micelles; format: biochemical; conditions: for Effect on stimulated ATPase / Stimulated ATPase: in the presence of verapamil; for Stimulated ATPase / Basal ATPase: ± standard deviation; for Effect on basal ATPase / Basal ATPase / Stimulation of basal ATPase: no added transport substrate
T1 construct: made in house; host or cells: Pichia pastoris
Protocol: Evaluation of mode of inhibition of P-glycoprotein by Group 1 and Group 2 variants of compound 29. To assess the mode of inhibition of P-gp by the novel variants of P-gp inhibitor 29, ATP hydrolysis by P-gp was evaluated in the presence or absence of the variants. […] Murine P-gp (MDR3) expressed in Pichia pastoris that had all naturally occurring cysteines replaced with alanine, was used^45, 46. It is widely assumed that the ATP hydrolytic rate of P-gp is stimulated in the presence of transport substrates when compared to ATP hydrolysis in the absence of transport substrates. Assays comparing these rates can therefore be useful not only in identifying inhibitors of P-gp catalyzed ATP hydrolysis, but also to potentially infer whether a compound might be a transport substrate if basal ATPase rates are stimulated by the addition of a compound.
P-glycoprotein Purification. Cysteine-less MDR3 and the human normal MDR1 P-glycoprotein was recombinantly expressed in the yeast Pichia pastoris essentially as in^45, 46 and used for assaying ATP hydrolysis and ATP binding to the protein in the presence of the 29-variants. Purification of the protein was performed as described^49 with small modifications resulting in highly enriched P-gp in mixed micelles containing dodecyl maltoside (DDM) and lysophosphatidyl choline^26.
ATPase Activity Assays. ATP hydrolysis activity was measured using a coupled enzyme assay^72 as modified in reference^26.

DU145TXR = test: Cell viability, toxicity of the compounds themselves; format: cell-based; conditions: absence of chemotherapeutic or very low paclitaxel
Protocol: It should be noted that compounds 541 and 551 were not assessed in these latter experiments.
MTT cell viability assay. Cells were trypsinized from monolayers and seeded with 3000 cells in 150 μL of complete medium in a 96 well plate. After 24 hours, cells were treated for 48 hours with paclitaxel (Acros Organics, NJ) and/or P-gp inhibitory compounds dissolved in DMSO, or DMSO controls. All additions were diluted into complete medium. After 48 hours of treatment, MTT assays were performed as described^41 using 5 mg/mL of MTT (Acros Organics, NJ) solution prepared in PBS (137 mM NaCl, 2.7 mM KCl, 10 mM Na2HPO4, 1.8 mM KH2PO4, pH 7.4). After 4 hours of incubation with MTT, the media was removed and the formazan crystals were dissolved in 100 μL of DMSO. The absorbance at 570 nm was then measured using a BioTek Cytation 5 imaging multi-mode reader (Bio-Tek, Winooski, Vt.). Percent viability was calculated using DMSO treated cells as representative for 100% viability, according to Equation 1. Background absorbance was determined using MTT and complete medium without cells and subtracted from all the test values. Equation 1: […]

[2] = target: T2, cysteineless mouse P-glycoprotein (Mus musculus, UniProt P21447, C1070A/C1121A/C1223A/C133A/C427A/C638A/C669A/C713A/C952A); conditions: in the presence of 29, from Brewer et al. (2014), cited from earlier work
T2 construct: made in house; host or cells: Pichia pastoris
T2 sequence (P21447 whole entry C133A/C427A/C638A/C669A/C713A/C952A/C1070A/C1121A/C1223A): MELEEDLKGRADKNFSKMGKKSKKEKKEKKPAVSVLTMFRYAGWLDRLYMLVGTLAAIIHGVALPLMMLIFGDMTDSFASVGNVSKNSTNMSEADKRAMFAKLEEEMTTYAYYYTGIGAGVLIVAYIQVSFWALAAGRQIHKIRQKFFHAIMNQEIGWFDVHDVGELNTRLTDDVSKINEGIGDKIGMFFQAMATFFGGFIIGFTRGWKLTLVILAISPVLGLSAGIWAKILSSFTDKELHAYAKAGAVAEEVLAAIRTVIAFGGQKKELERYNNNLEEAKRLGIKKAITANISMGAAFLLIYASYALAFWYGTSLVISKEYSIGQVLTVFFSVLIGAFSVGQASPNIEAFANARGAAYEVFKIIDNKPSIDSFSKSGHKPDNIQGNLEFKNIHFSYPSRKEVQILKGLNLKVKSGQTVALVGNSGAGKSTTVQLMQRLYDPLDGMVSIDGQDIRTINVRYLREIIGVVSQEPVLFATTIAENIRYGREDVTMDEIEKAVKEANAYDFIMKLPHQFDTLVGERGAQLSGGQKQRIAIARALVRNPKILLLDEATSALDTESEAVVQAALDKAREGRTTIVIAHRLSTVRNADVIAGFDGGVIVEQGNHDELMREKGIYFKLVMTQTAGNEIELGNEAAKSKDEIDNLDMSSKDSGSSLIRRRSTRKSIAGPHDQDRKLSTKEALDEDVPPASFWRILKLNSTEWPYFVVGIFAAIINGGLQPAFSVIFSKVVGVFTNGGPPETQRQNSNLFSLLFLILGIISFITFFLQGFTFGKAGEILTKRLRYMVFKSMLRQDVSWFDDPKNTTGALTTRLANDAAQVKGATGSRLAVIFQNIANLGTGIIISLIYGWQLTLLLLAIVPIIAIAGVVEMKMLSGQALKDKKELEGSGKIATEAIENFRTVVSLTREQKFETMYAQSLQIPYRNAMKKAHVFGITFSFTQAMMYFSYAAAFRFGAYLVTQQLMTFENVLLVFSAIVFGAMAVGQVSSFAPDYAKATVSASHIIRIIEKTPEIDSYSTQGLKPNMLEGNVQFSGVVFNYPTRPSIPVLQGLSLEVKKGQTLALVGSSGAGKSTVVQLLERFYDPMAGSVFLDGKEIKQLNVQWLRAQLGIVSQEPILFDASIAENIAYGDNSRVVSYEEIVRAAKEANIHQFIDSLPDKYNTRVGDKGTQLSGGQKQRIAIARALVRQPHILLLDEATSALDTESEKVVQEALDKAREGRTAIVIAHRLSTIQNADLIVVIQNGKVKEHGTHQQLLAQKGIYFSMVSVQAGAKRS

T1 sequence (P21447 whole entry C133A/C427A/C638A/C669A/C713A/C952A/C1070A/C1121A/C1223A): as above

Effect on stimulated ATPase ([1]; listed as SMU29-216): none
Stimulated ATPase [1]: 108 ± 2 % of DMSO
Effect on basal ATPase ([1]; listed as SMU29-216): none
Basal ATPase [1]: 105 ± 7 % of DMSO
Compound: 2-{[2-(9H-flouoren-2-yl)-2-oxoethyl]}-N-[1-phenyl-3-(2,4,5-trimethylphenyl0-1H-pyrazol-5-yl]acetamide [29-216]
Effect on stimulated ATPase ([1]; listed as 216): did not affect; also recorded: little effect
Effect on basal ATPase ([1]; listed as 216): did not significantly affect; also recorded: did not activate

Effect on stimulated ATPase ([1]; listed as SMU29-227): inhibitor
Stimulated ATPase [1]: 50 ± 2 % of DMSO
Effect on basal ATPase ([1]; listed as SMU29-227): none
Basal ATPase [1]: 88 ± 4 % of DMSO
Compound: Cc1cc(C)c(-c2cc(NC(=O)CSCC(=O)N3c4ccccc4CCc4ccccc43)n(-c3ccccc3)n2)cc1C [29-227, 2-[(2-{2-azatricyclo[9.4.0.0]pentadeca-1(11),3(8},4,6,12,14-hexaen-2-yl)-2-oxoethyl)sulfanyl]-N-[1-phenyl-3-(2,4,5-trimethylphenyl)-1H-pyrazol-5-yl]acetamide]
Effect on stimulated ATPase ([1]; listed as 227): inhibited activity similar to parental compound 29; also recorded: inhibited verapamil-stimulated ATPase activity
Effect on basal ATPase ([1]; listed as 227): did not significantly affect; also recorded: did not activate

Effect on stimulated ATPase ([1]; listed as 231): slightly stimulated
Effect on stimulated ATPase ([1]; listed as SMU26-231): stimulator
Stimulated ATPase [1]: 141 ± 18 % of DMSO
Effect on basal ATPase ([1]; listed as SMU26-231): inhibitor
Basal ATPase [1]: 70 ± 0 % of DMSO
Compound: Cc1cc(C)c(-c2cc(NC(=O)CSCC(=O)Nc3ccc4ccccc4c3)n(-c3ccccc3)n2)cc1C [29-231, 2-({[(naphthalen-2-yl)carbamoyl]methyl}sulfanyl)-N-[1-phenyl-3-(2,4,5-trimethylphenyl)-1H-pyrazol-5-yl]acetamide]

Effect on stimulated ATPase ([1]; listed as 238): about two-fold
Effect on stimulated ATPase ([1]; listed as SMU29-238): stimulator
Stimulated ATPase [1]: 194 ± 22 % of DMSO
Effect on basal ATPase [1]: stimulator
Stimulation of basal ATPase [1]: ~10 fold
Basal ATPase [1]: 1143 ± 46 % of DMSO
Compound: COc1cc(NC(=O)CSCC(=O)Nc2cc(-c3cc(C)c(C)cc3C)nn2-c2ccccc2)cc(OC)c1OC [29-238, N-[1-phenyl-3-(2,4,5-trimethylphenyl)-1H-pyrazol-5-yl]-2-({[(3,4,5-trimethoxyphenyl)carbamoyl]methyl}sulfanyl)acetamide]

Effect on stimulated ATPase ([1]; listed as SMU29-255): none
Stimulated ATPase [1]: 123 ± 15 % of DMSO
Effect on basal ATPase [1]: stimulator
Stimulation of basal ATPase [1]: ~3 fold
Basal ATPase [1]: 355 ± 7 % of DMSO
Compound: Cc1cc(C)c(-c2cc(NC(=O)CSCC(=O)Nc3ccc4ncsc4c3)n(-c3ccccc3)n2)cc1C [29-255, 2-({[(1,3-benzothiazol-6-yl)carbamoyl]methyl}sulfanyl)-N-[1-phenyl-3-(2,4,5 trimethylphenyl)-1H-pyrazol-5-yl]acetamide]

Effect on stimulated ATPase ([1]; listed as SMU29-278): inhibitor
Stimulated ATPase [1]: 41 ± 7 % of DMSO
Effect on basal ATPase ([1]; listed as 278): inhibited
Effect on basal ATPase ([1]; listed as SMU29-278): inhibitor
Basal ATPase [1]: 78 ± 4 % of DMSO
Compound: Cc1cc(C)c(-c2cc(NC(=O)CSCC(=O)NC34CC5CC(CC(C5)C3)C4)n(-c3ccccc3)n2)cc1C [29-278, 2-({[(adamantan-1-yl)carbamoyl]methyl}sulfanyl)-N-[1-phenyl-3-(2,4,5-trimethylphenyl)-1H-pyrazol-5-yl]acetamide]
Effect on stimulated ATPase ([1]; listed as 278): inhibited verapamil-stimulated ATPase activity

Compound: Cc1cc(C)c(-c2cc(NC(=O)CSCC(=O)NC(c3ccccc3)c3ccccc3)n(-c3ccccc3)n2)cc1C [29-280, N-(diphenylmethyl)-2-[({[1-phenyl-3-(2,4,5-trimethylphenyl)-1H-pyrazol-5-yl]carbamoyl)methyl}sulfanyl]acetamide]
Toxicity of the compound to DU145TXR cells (DU145TXR): seemed to exhibit some toxicity
Effect on stimulated ATPase ([1]; listed as 280): only a slight stimulation
Effect on stimulated ATPase ([1]; listed as SMU29-280): stimulator
Stimulated ATPase [1]: 116 ± 4 % of DMSO
Effect on basal ATPase ([1]; listed as SMU29-280): stimulator
Basal ATPase [1]: 148 ± 4 % of DMSO

Effect on stimulated ATPase ([1]; listed as SMU29-286): none
Stimulated ATPase [1]: 98 ± 2 % of DMSO
Effect on basal ATPase ([1]; listed as SMU29-286): none
Basal ATPase [1]: 143 ± 32 % of DMSO
Compound: Cc1cc(C)c(-c2cc(NC(=O)CSCC(=O)NCc3ccc(F)cc3)n(-c3ccccc3)n2)cc1C [29-286]
Effect on stimulated ATPase ([1]; listed as 286): no significant effect; also recorded: little effect
Effect on basal ATPase ([1]; listed as 286): only marginally or with no statistical significance

Compound: Cc1cc(C)c(-c2cc(NC(=O)CSc3nnc4c(n3)[nH]c3ccccc34)n(-c3ccccc3)n2)cc1C [29-541, 2-((5H-[1,2,4]triazino[5,6-b]indol-3-yl)thio)-N-(1-phenyl-3-(2,4,5-trimethylphenyl)-1H-pyrazol-5-yl)acetamide]
Toxicity of the compound to DU145TXR cells (DU145TXR): showed some toxicity
Effect on stimulated ATPase ([1]; listed as 541): inhibited activity similar to parental compound 29; also recorded: inhibited verapamil-stimulated ATPase activity
Effect on stimulated ATPase ([1]; listed as SMU29-541): inhibitor
Stimulated ATPase [1]: 68 ± 7 % of DMSO
Effect on basal ATPase ([1]; listed as 541): did not significantly affect; also recorded: did not activate
Effect on basal ATPase ([1]; listed as SMU29-541): none
Basal ATPase [1]: 101 ± 12 % of DMSO

Effect on stimulated ATPase ([1]; listed as SMU29-551): inhibitor
Stimulated ATPase [1]: 62 ± 5 % of DMSO
Effect on basal ATPase ([1]; listed as 551): stimulated basal ATPase activity
Effect on basal ATPase ([1]; listed as SMU29-551): stimulator
Basal ATPase [1]: 150 ± 6 % of DMSO
Compound: Cc1cc(C)c(-c2cc(NC(=O)CSc3cccc(NC(=O)c4cncc(Br)c4)c3)n(-c3ccccc3)n2)cc1C [29-551, 5-bromo-N-(3-((2-oxo-2-((1-phenyl-3-(2,4,5-trimethylphenyl)-1H-pyrazol-5-yl)amino)ethyl)thio)phenyl)nicotinamide]
Effect on stimulated ATPase ([1]; listed as 551): inhibited activity similar to parental compound 29; also recorded: inhibited verapamil-stimulated ATPase activity

Effect on stimulated ATPase [1]: inhibitor
Stimulated ATPase [1]: 49 ± 2 % of DMSO
Effect on basal ATPase [1]: none
Basal ATPase [1]: 95 ± 11 % of DMSO
Compound: Cc1cc(C)c(-c2cc(NC(=O)CSc3nnc(C4CC4)[nH]3)n(-c3ccccc3)n2)cc1C [compound 29, reference compound]
Effect on SL-ANP binding [2]: did not affect the binding
Effect on SL-ANP binding ([2]; listed as SMU29): no
